1 compound from publication PMC13311170, “Ganaxolone, an approved therapy for CDKL5-deficiency disorder, is an inhibitor of PTP1B” (The Journal of Biological Chemistry, 2026) can be followed below.

This experiment has as its target T1, PTP1B (Homo sapiens, UniProt P18031).
T1 construct: gene PTPN1; WT PTP1B containing a His-tag
T1 sequence (P18031 1-435): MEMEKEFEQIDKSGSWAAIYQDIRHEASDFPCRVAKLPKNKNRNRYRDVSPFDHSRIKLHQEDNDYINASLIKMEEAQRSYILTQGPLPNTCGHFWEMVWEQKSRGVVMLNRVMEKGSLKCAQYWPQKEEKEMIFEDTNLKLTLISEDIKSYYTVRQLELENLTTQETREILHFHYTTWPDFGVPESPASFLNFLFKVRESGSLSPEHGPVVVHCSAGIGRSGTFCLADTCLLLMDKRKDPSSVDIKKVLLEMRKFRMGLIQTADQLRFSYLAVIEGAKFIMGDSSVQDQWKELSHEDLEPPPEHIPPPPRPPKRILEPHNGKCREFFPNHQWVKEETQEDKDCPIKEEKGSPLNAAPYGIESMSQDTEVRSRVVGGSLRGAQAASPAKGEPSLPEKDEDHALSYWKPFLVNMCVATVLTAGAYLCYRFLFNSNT
The experiment is described as follows: DiFMUP fluorescence phosphatase assay with […] purified PTP1B. The format is biochemical.

Broadly, the IC50 is the concentration at which inhibition is half-maximal. A high value points to a need for much substance. As to `CC(=O)[C@H]1CC[C@H]2[C@@H]3CC[C@H]4C[C@](C)(O)CC[C@]4(C)[C@H]3CC[C@]12C` [ganaxolone, 3α-Hydroxy-3β-methyl-5α-pregnan-20-one], the IC50 was 600 nM. This counts as sub-micromolar.
